From US12377084B2, “ERAP1 modulators” (GREY WOLF THERAPEUTICS LIMITED, priority 2019, dated 2025)
Counter-ions that a name gives are not always drawn.

Molecular target: T1, Purified ERAP1(37-941)-10 His (ERAP1) (Homo sapiens, UniProt Q9NZ08)
T1 construct: Purified ERAP1(37-941)-10 His (ERAP1); 10xHis (C)
Assay: ERAP1 mediated hydrolysis of an amide substrate in a biochemical system (10 mer inhibition assay)
Conditions: 10-mer substrate, incubated at 23° C. for 1 h; excitation 279 nm, emission 355 nm; read-out: IC50 vs Decapeptide WRVYEKC(Dnp)ALK-acid (where Dnp is Dinitrophenyl maleimide) (10-mer)
Source text: This peptide has minimal fluorescence as the N-terminal tryptophan residue's fluorescence is quenched by the dinitrophenol (DNP) residue within the peptide. However, as ERAP1 hydrolyses the N-terminal amide bond and tryptophan is released this internal quenching is lost and the reaction is monitored by the increase in tryptophan fluorescence over the course of the assay. For the purposes of this application this assay is referred to as the “10 mer inhibition assay” and compound potencies are calculated and expressed as IC50 as would be familiar to a person skilled in the art.
Biological Assay 1: ERAP1 Mediated Hydrolysis of an Amide Substrate Measured in a Biochemical System
1× Assay buffer (AB): 25 mM Bis-tris propane, 0.05% w/v
Hydroxypropylmethylcellulose pH 7.75 made with Optima grade water
Decapeptide WRVYEKC(Dnp)ALK-acid (where Dnp is Dinitrophenyl maleimide) (10-mer)
12.5 μL ERAP1 enzyme in 1×AB was combined with 250 nL test compound in DMSO. 12.5 μL of either 240 μM L-AMC in 1×AB or 100 μM 10-mer in 1×AB was added to the reaction and incubated at 23° C. for 1 h. For detection, plates were read at excitation 365 nm and emission 442 nm (L-AMC) or excitation 279 nm and emission 355 nm (10-mer). Compound IC50 was determined using a 4-parameter equation.

T1 sequence (Q9NZ08 37-941): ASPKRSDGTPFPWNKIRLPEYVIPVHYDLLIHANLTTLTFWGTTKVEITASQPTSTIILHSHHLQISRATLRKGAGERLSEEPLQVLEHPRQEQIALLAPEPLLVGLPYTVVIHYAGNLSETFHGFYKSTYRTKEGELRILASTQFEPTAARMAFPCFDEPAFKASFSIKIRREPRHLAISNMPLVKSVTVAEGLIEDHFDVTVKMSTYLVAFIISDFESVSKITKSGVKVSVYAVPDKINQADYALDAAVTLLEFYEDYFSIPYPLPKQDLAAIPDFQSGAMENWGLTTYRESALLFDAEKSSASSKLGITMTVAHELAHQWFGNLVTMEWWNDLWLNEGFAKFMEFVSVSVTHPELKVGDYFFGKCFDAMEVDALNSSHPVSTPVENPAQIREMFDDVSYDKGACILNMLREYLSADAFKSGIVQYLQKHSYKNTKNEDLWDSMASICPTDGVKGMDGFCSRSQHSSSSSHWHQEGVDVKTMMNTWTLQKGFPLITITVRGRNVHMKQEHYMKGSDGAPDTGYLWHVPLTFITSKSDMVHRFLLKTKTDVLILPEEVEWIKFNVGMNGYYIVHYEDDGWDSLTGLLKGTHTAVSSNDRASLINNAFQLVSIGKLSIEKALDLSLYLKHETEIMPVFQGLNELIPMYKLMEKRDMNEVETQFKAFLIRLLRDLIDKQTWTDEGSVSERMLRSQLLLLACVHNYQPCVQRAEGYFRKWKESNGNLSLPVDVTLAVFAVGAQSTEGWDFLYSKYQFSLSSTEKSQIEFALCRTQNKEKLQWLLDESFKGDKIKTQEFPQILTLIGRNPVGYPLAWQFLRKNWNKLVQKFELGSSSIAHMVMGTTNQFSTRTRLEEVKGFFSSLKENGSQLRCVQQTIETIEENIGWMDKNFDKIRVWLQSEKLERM

IC50 [nM]	Structure (SMILES)
< 100	O=C(O)c1ccc(C2CC2)c(S(=O)(=O)Nc2cc(C(F)(F)F)ccc2C2CCCCN2)c1 (single isomer, unassigned; enantiomer 1) [Example 29, 4-cyclopropyl-3-(N-(2-(piperidin-2-yl)-5-(trifluoromethyl)phenyl)sulfamoyl)benzoic Acid Enantiomer 1]
< 100	O=C(O)c1ccc(C2CC2)c(S(=O)(=O)Nc2cc(C(F)(F)F)ccc2C2CCCCN2)c1 (single isomer, unassigned; enantiomer 2) [Example 30, 4-cyclopropyl-3-(N-(2-(piperidin-2-yl)-5-(trifluoromethyl)phenyl)sulfamoyl)benzoic Acid Enantiomer 2]
> 500	COc1ccc(C(=O)O)cc1S(=O)(=O)Nc1cc(C(F)(F)F)ccc1C1CCCN(C)C1 (stereo not shown) [Example 1, 4-methoxy-3-(N-(2-(1-methylpiperidin-3-yl)-5-(trifluoromethyl)phenyl)sulfamoyl)benzoic Acid]
100 to 500	COc1ccc(C(=O)O)cc1S(=O)(=O)Nc1cc(C(F)(F)F)ccc1C1CCCNC1 (stereo not shown) [Example 2, 4-methoxy-3-(N-(2-(piperidin-3-yl)-5-(trifluoromethyl)phenyl)sulfamoyl)benzoic Acid Hydrochloride]
< 100	CCc1ccc(C(=O)O)cc1S(=O)(=O)Nc1cc(C(F)(F)F)ccc1C1CCCNC1 (stereo not shown) [Example 3, 4-ethyl-3-(N-(2-(piperidin-3-yl)-5-(trifluoromethyl)phenyl)sulfamoyl)benzoic Acid Hydrochloride]
< 100	CCc1ccc(C(=O)O)cc1S(=O)(=O)Nc1cc(-n2cnnn2)ccc1C1CCCCC1 [Example 4, 3-(N-(2-cyclohexyl-5-(tetrazol-1-yl)phenyl)sulfamoyl)-4-ethylbenzoic Acid]
100 to 500	CCc1ccc(C(=O)O)cc1S(=O)(=O)Nc1cc(C(F)(F)F)ccc1C1CCCN1 (stereo not shown) [Example 5, 4-ethyl-3-(N-(2-(pyrrolidin-2-yl)-5-(trifluoromethyl)phenyl)sulfamoyl)benzoic Acid]
100 to 500	CCc1ccc(C(=O)O)cc1S(=O)(=O)Nc1cc(C(F)(F)F)ccc1C1CCCN1C (stereo not shown) [Example 6, 4-ethyl-3-(N-(2-(1-methylpyrrolidin-2-yl)-5-(trifluoromethyl)phenyl)sulfamoyl)benzoic]
< 100	CCc1ccc(C(=O)O)cc1S(=O)(=O)Nc1cc(C(F)(F)F)ccc1C1CCNC1 (stereo not shown) [Example 7, 4-ethyl-3-(N-(2-(pyrrolidin-3-yl)-5-(trifluoromethyl)phenyl)sulfamoyl)benzoic Acid]
< 100	CCc1ccc(C(=O)O)cc1S(=O)(=O)Nc1cc(C(F)(F)F)ccc1C1CCCCN1 (stereo not shown) [Example 8, 4-ethyl-3-(N-(2-(piperidin-2-yl)-5-(trifluoromethyl)phenyl)sulfamoyl)benzoic Acid]
< 100	CCc1ccc(C(=O)O)cc1S(=O)(=O)Nc1cc(C(F)(F)F)ccc1C1CCCCC1 [Example 9, 3-(N-(2-cyclohexyl-5-(trifluoromethyl)phenyl)sulfamoyl)-4-ethylbenzoic Acid]
< 100	CCc1ccc(C(=O)O)cc1S(=O)(=O)Nc1cc(C(F)(F)F)ccc1C1CCCCN1C (stereo not shown) [Example 10, 4-ethyl-3-(N-(2-(1-methylpiperidin-2-yl)-5-(trifluoromethyl)phenyl)sulfamoyl)benzoic Acid]
< 100	CCc1ccc(C(=O)O)cc1S(=O)(=O)Nc1cc(S(C)(=O)=O)ccc1C1CCCCC1 [Example 11, 3-(N-(2-cyclohexyl-5-(methylsulfonyl)phenyl)sulfamoyl)-4-ethylbenzoic Acid]
< 100	O=C(O)c1ccc(C2CC2)c(S(=O)(=O)Nc2cc(C(F)(F)F)ccc2C2CCCNC2)c1 (stereo not shown) [Example 12, 4-cyclopropyl-3-(N-(2-(piperidin-3-yl)-5-(trifluoromethyl)phenyl)sulfamoyl)benzoic Acid]
< 100	CCc1ccc(C(=O)O)cc1S(=O)(=O)Nc1cc(C#N)ccc1C1CCCCC1 [Example 13, 3-(N-(5-cyano-2-cyclohexylphenyl)sulfamoyl)-4-ethylbenzoic Acid]
< 100	CCc1ccc(C(=O)O)cc1S(=O)(=O)Nc1cc(S(C)(=O)=O)ccc1C1CCCNC1 (stereo not shown) [Example 14, 4-ethyl-3-(N-(5-(methylsulfonyl)-2-(piperidin-3-yl)phenyl)sulfamoyl)benzoic Acid]

IC50 [nM]	Structure (SMILES)
< 100	CCc1ccc(C(=O)O)cc1S(=O)(=O)Nc1cc(S(C)(=O)=O)ccc1C1CCCCN1 (stereo not shown) [Example 15, 4-ethyl-3-(N-(5-(methylsulfonyl)-2-(piperidin-2-yl)phenyl)sulfamoyl)benzoic Acid]
< 100	O=C(O)c1ccc(C2CC2)c(S(=O)(=O)Nc2cc(C(F)(F)F)ccc2C2CCCCN2)c1 (stereo not shown) [Example 16, 4-cyclopropyl-3-(N-(2-(piperidin-2-yl)-5-(trifluoromethyl)phenyl)sulfamoyl)benzoic Acid]
< 100	CS(=O)(=O)c1ccc(C2CCCCC2)c(NS(=O)(=O)c2cc(C(=O)O)ccc2C2CC2)c1 [Example 17, 3-(N-(2-cyclohexyl-5-(methylsulfonyl)phenyl)sulfamoyl)-4-cyclopropylbenzoic Acid]
< 100	N#Cc1ccc(C2CCCCC2)c(NS(=O)(=O)c2cc(C(=O)O)ccc2C2CC2)c1 [Example 18, 3-(N-(5-cyano-2-cyclohexylphenyl)sulfamoyl)-4-cyclopropylbenzoic Acid]
< 100	N#Cc1ccc(C2CCCCN2)c(NS(=O)(=O)c2cc(C(=O)O)ccc2C2CC2)c1 (stereo not shown) [Example 19, 3-(N-(5-cyano-2-(piperidin-2-yl)phenyl)sulfamoyl)-4-cyclopropylbenzoic Acid]
< 100	CS(=O)(=O)c1ccc(C2CCCCN2)c(NS(=O)(=O)c2cc(C(=O)O)ccc2C2CC2)c1 (stereo not shown) [Example 20, 4-cyclopropyl-3-(N-(5-(methylsulfonyl)-2-(piperidin-2-yl)phenyl)sulfamoyl)benzoic Acid]
< 100	N#Cc1cc(NS(=O)(=O)c2cc(C(=O)O)ccc2C2CC2)c(C2CCCCN2)cc1F (stereo not shown) [Example 21, 3-(N-(5-cyano-4-fluoro-2-(piperidin-2-yl)phenyl)sulfamoyl)-4-cyclopropylbenzoic Acid]
< 100	N#Cc1cc(NS(=O)(=O)c2cc(C(=O)O)ccc2C2CC2)c(C2CCCCN2)cc1Cl (stereo not shown) [Example 22, 3-(N-(4-chloro-5-cyano-2-(piperidin-2-yl)phenyl)sulfamoyl)-4-cyclopropylbenzoic Acid]
< 100	O=C(O)c1ccc(C2CC2)c(S(=O)(=O)Nc2cc(-n3cnnn3)ccc2C2CCCCN2)c1 (stereo not shown) [Example 23, 4-cyclopropyl-3-(N-(2-(piperidin-2-yl)-5-(tetrazol-1-yl)phenyl)sulfamoyl)benzoic Acid]
< 100	O=C(O)c1ccc(C2CC2)c(S(=O)(=O)Nc2cc(C(F)(F)F)c(F)cc2C2CCCCN2)c1 (stereo not shown) [Example 24, 4-cyclopropyl-3-(N-(4-fluoro-2-(piperidin-2-yl)-5-(trifluoromethyl)phenyl)sulfamoyl)benzoic Acid]
< 100	CS(=O)(=O)c1cc(NS(=O)(=O)c2cc(C(=O)O)ccc2C2CC2)c(C2CCCCN2)cc1F (stereo not shown) [Example 25, 4-cyclopropyl-3-(N-(4-fluoro-5-(methylsulfonyl)-2-(piperidin-2-yl)phenyl)sulfamoyl)benzoic Acid Hydrochloride]
< 100	O=C(O)c1ccc(C2CC2)c(S(=O)(=O)Nc2cc(C(F)(F)F)c(Cl)cc2C2CCCCN2)c1 (stereo not shown) [Example 26, 3-(N-(4-chloro-2-(piperidin-2-yl)-5-(trifluoromethyl)phenyl)sulfamoyl)-4-cyclopropylbenzoic Acid]
< 100	CS(=O)(=O)c1cc(NS(=O)(=O)c2cc(C(=O)O)ccc2C2CC2)c(C2CCCCN2)cc1Cl (stereo not shown) [Example 27, 3-(N-(4-chloro-5-(methylsulfonyl)-2-(piperidin-2-yl)phenyl)sulfamoyl)-4-cyclopropylbenzoic Acid Hydrochloride]
< 100	O=C(O)c1ccc(C2CC2)c(S(=O)(=O)Nc2cc(-c3ccns3)ccc2C2CCCCN2)c1 (stereo not shown) [Example 28, 4-cyclopropyl-3-(N-(5-(isothiazol-5-yl)-2-(piperidin-2-yl)phenyl)sulfamoyl)benzoic Acid]
< 100	O=C(O)c1cc(F)c(C2CC2)c(S(=O)(=O)Nc2cc(C(F)(F)F)ccc2C2CCCCN2)c1 (stereo not shown) [Example 31, 4-cyclopropyl-3-fluoro-5-(N-(2-(piperidin-2-yl)-5-(trifluoromethyl)phenyl)sulfamoyl)benzoic Acid]
